Test results taken from ChEMBL document CHEMBL1131968, “P'-extended alpha-ketoamide inhibitors of proteasome” (Bioorg Med Chem Lett, 1999).
pKi: −log10 of the molar value.

tested on: Proteasome; test: Inhibitory activity against proteasome at 1 uM concentration; type: subcellular

Work on N/C(=N/CCCC(NC(=O)OCc1ccccc1)C(=O)N[C@@H](Cc1ccccc1)C(=O)C(=O)NCCNS(=O)(=O)c1ccccc1)N[N+](=O)[O-] (stereo partly drawn) yielded an inhibition of 34%.

tested on: Proteasome; test: Inhibitory activity against proteasome at 100 nM concentration; type: subcellular

First: CC(C)(C)OC(=O)/N=C(\NCCC[C@H](NC(=O)C(CCCCCCCCN1C(=O)c2ccccc2C1=O)C1CCCC1)C(=O)N[C@@H](Cc1ccccc1)C(=O)C(=O)NCCNS(=O)(=O)c1ccccc1)NC(=O)OC(C)(C)C (stereo partly drawn)
Second: CC(C)(C)OC(=O)NCCCC[C@H](NC(=O)C(CCCCCCCCN1C(=O)c2ccccc2C1=O)C1CCCC1)C(=O)N[C@@H](Cc1ccccc1)C(=O)C(=O)NCCNS(=O)(=O)c1ccccc1 (stereo partly drawn)
The inhibition of the first is lower: 34% for the first, 48% for the second.

N=C(N)NCCC[C@H](NC(=O)C(CCCCCCCCN1C(=O)c2ccccc2C1=O)C1CCCC1)C(=O)N[C@@H](Cc1ccccc1)C(=O)C(=O)NCCNS(=O)(=O)c1ccccc1 (stereo partly drawn) was tested, and the inhibition was 31%.

biological target: Proteasome; test: Inhibitory activity against proteasome; type: subcellular

Compared with CS(=O)(=O)NCCCC[C@H](NC(=O)C(CCCCCCCCN1C(=O)c2ccccc2C1=O)C1CCCC1)C(=O)N[C@@H](Cc1ccccc1)C(=O)C(=O)NCCNS(=O)(=O)c1ccccc1 (stereo partly drawn), NCCCC[C@H](NC(=O)C(CCCCCCCCN1C(=O)c2ccccc2C1=O)C1CCCC1)C(=O)N[C@@H](Cc1ccccc1)C(=O)C(=O)NCCNS(=O)(=O)c1ccccc1 (stereo partly drawn) is 0.27 log units higher in pKi: 7.39 for the first, 7.66 for the second.

First: O=C(NCCNS(=O)(=O)c1ccccc1)C(=O)[C@H](Cc1ccccc1)NC(=O)[C@H](CCCCNC(=O)c1cnccn1)NC(=O)C(CCCCCCCCN1C(=O)c2ccccc2C1=O)C1CCCC1 (stereo partly drawn)
Second: N/C(=N\CCC[C@H](NC(=O)C(CCCCCCCCN1C(=O)c2ccccc2C1=O)C1CCCC1)C(=O)N[C@@H](Cc1ccccc1)C(=O)C(=O)NCCNS(=O)(=O)c1ccccc1)N[N+](=O)[O-] (stereo partly drawn)
The pKi of the first is 1.86 log units lower: 7.10 for the first, 8.96 for the second. The second binds more tightly here.

Going from CCNC(=O)C(=O)[C@H](Cc1ccccc1)NC(=O)[C@H](CCC/N=C(\N)N[N+](=O)[O-])NC(=O)C(CCCCCCCCN1C(=O)c2ccccc2C1=O)C1CCCC1 (stereo partly drawn) to NCCNC(=O)C(=O)[C@H](Cc1ccccc1)NC(=O)[C@H](CCC/N=C(\N)N[N+](=O)[O-])NC(=O)C(CCCCCCCCN1C(=O)c2ccccc2C1=O)C1CCCC1 (stereo partly drawn), the pKi falls from 7.92 to 7.17 (0.75 log units).

CC(C)(C)OC(=O)NCCNC(=O)C(=O)[C@H](Cc1ccccc1)NC(=O)[C@H](CCC/N=C(\N)N[N+](=O)[O-])NC(=O)C(CCCCCCCCN1C(=O)c2ccccc2C1=O)C1CCCC1 (stereo partly drawn) showed a pKi of 8.66.

tested on: Proteasome; test: Inhibitory activity against proteasome at 10 uM concentration; type: subcellular

Compared with N[C@@H](Cc1ccccc1)C(=O)C(=O)NCCNS(=O)(=O)c1ccccc1, CC(C)(C)OC(=O)N[C@@H](Cc1ccccc1)C(=O)C(=O)NCCNS(=O)(=O)c1ccccc1 is higher in inhibition: 12% for the first, 14% for the second.
